Reference: patent publication US20060045892A1, “Cosmetic compositions” (priority 2004, published 2006)

What follows are compounds tested on skin (assay: Skin irritation by the applied material). Conditions: topical.
Type: in vivo, humans
`CC1CCC(C(C)C)C(O)C1` (stereo not drawn) [menthol] was tested, and the “irritation (reddening) of the skin to which it is applied” value was “can irritate”.

What follows are compounds tested on skin redness, skin inflammation, irritation and skin aging (assay: Materials tested for usefulness in the present invention (improving skin appearance, reducing skin redness, inflammation, irritation)). Conditions: topical; related materials tested.
Type: in vivo, humans
With `OC1CCCC1O` (stereo not drawn) [1,2-cyclopentanediol] the “usefulness (activity) in the present invention” value (shortened to “usefulness (activity)”) was “do not work”. With `CC1(O)CCCCC1` [1-methylcyclohexanol] the “usefulness (activity)” value was “not to be useful”. With `OCCCCC1CCCCC1` [4-cyclohexyl-1-butanol] the “usefulness (activity)” value was “not to be useful”. In the case of `OCC1(CO)CC2C=CC1C2` (stereo not drawn) [5-norborene-2,2-dimethanol], the “usefulness (activity)” value is reported as “do not work”. `CC1(C)[C@H]2C[C@H]1[C@@](C)(O)[C@@H](O)C2` [(1R,2R,3S,5S-(−))-pinanediol] was tested, and the “usefulness (activity)” value was “do not work”. In the case of `C1CCCCC1` [cyclohexane], the “usefulness (activity)” value is reported as “not to be useful”. In the case of `C1=CCCCC1` [cyclohexene], the “usefulness (activity)” value is reported as “not to be useful”. With `CC(=O)OC1CCCCC1` [cyclohexyl acetate] the “usefulness (activity)” value was “not to be useful”. `O=C(O)C1CCCCC1` [cyclohexyl carboxylic acid] was tested, and the “usefulness (activity)” value was “not to be useful”. `ClC1CCCCC1` [cyclohexyl chloride] was tested, and the “usefulness (activity)” value was “not to be useful”. In the case of `CC1CCC(C(C)C)C(O)C1` (stereo not drawn) [menthol], the “usefulness (activity)” value is reported as “not to be useful”.
